For this test, the system named is recognition learning and memory retrieval. The experiment in a line: Novel Object Recognition (NOR) test. The note with it: rats on low Mg diet; in comparison to Magtein and placebo control; FIG. 7. It is filed as in vivo, Sprague Dawley rats. The source says: Male Sprague Dawley rats (150-175 grams on arrival) from Envigo (Indianapolis, IN) were used in the study. Upon receipt, rats were assigned unique identification numbers and were group housed with 2-3 rats per cage in ventilated cages with micro-isolator filter tops. All rats were examined and weighed prior to initiation of the study to assure adequate health and suitability. During the course of the study, 12/12 light/dark cycles will be maintained. The room temperature will be maintained between 20° C. and 23° C. with a relative humidity maintained around 50%.
On the day of arrival to the research facility, animals (except for the normal Mg diet group, N=15) were placed on LabDiet 5008, a diet that is deficient in Mg containing 0.20% magnesium. […]
The Novel Object Recognition (NOR) is a test of recognition learning and memory retrieval, which takes advantage of the spontaneous preference of rodents to investigate a novel object compared to a familiar one. […] All training and testing trials were video-taped and scored by an observer blind to treatments.
On days 1 and 2, rats were allowed to freely explore the arena (no objects inside) for a 5-minute habituation period. […] One hour later, the rats were again placed into the test arena in the presence of one familiar object and one novel object (Object A and Object B), and the time spent exploring both objects is recorded. […]

The values below come from patent publication US12564605B2, “Plant based compositions and methods for the delivery of magnesium” (Standard Process, Inc., priority 2018, dated 2026).

On to `O=C([O-])CC(O)(CC(=O)[O-])C(=O)[O-].O=C([O-])CC(O)(CC(=O)[O-])C(=O)[O-].[Mg+2].[Mg+2].[Mg+2]` [Mg citrate], for which the “Cognitive function (Novel Object Recognition test, Recognition Index)” value is given as “trend toward improvement in cognitive function”.
